Measured values published in patent US20140315786A1, “USE OF INTRACELLULAR ENZYMES FOR THE RELEASE OF COVALENTLY LINKED BIOACTIVES” (Catabasis Pharmaceuticals, Inc., priority 2011, published 2014).

Experiments:
[1] = system: NFκB; experiment: NFκB-driven luciferase reporter assay in LPS-challenged RAW 264.7 macrophages; format: cell-based; conditions: Mus musculus, RAW264.7; RAW 264.7, LPS 200 ng/mL; linked bioactive; read-out: IC50 in an NFkB assay
Method: RAW 264.7 cells transfected with an NFκB-driven luciferase reporter were plated in 96 well plates. Cells were treated with Vehicle (0.1% ethanol) or test compounds for 2 hours. As a positive control for inhibition of NFκB signaling, 6 wells were treated with […]. Cells were then challenged with 200 ng/mL LPS for 3 hours in the presence of test compounds. A subset of wells treated with vehicle remained unstimulated with LPS to determine the floor signal of the assay. NFκB driven luciferase activity was developed by addition of BriteLite luciferase kit (PERKIN ELMER®) and measured using a Victor V plate reader. NFκB activity (luciferase activity) for each treatment was normalized to Vehicle wells treated with LPS (% NFκB Response).

[2] = system: ApoB secretion in HepG2 cells; experiment: ApoB secretion in HepG2 cells (oleate stimulated, ELISA); format: cell-based; conditions: Homo sapiens, linked bioactive
Method: HcpG2 cells (ATCC) were seeded at 10,000 cells per well in 96 well plates. After adhering overnight, growth media (10% FBS in DMEM) was removed and cells were serum starved for 24 hours in DMEM containing 0.1% fatty acid free bovine serum albumin (BSA, SIGMA®). Cells were then treated with the compounds. Niacin at 5 mM was used as a positive control. All treatments were performed in triplicate. Simultaneous with compound treatment, ApoB secretion was stimulated with the addition of […] complexed to fatty acid free BSA in a 5:1 molar ratio. Incubation with compounds and oleate was conducted for 24 hours. Media supernatants were removed and ApoB concentrations were measured using ELISA kits (MABTECH AB®). Percent inhibition of ApoB secretion was determined by normalizing data to vehicle treated wells. For a given compound, an IC50 (concentration at which 50% of ApoB secretion is inhibited) can also be determined by using a 4 parameter-fit inhibition curve model (GRAPH PAD PRISM®). In each experiment, cell viability was determined using the ATPlite 1-Step kit (PERKIN ELMER®), such that compound effects due to cytotoxicity could be monitored.

[3] = Rat liver lysate hydrolysis assay (FAAH and thiol reductase promoted cleavage); format: in vitro ADME
Method: The rat liver lysate hydrolysis experiment was performed in Eppendorf tubes, by adding the necessary amount of water for the assay first. A 10× buffer solution with final concentrations of HEPES and EDTA of 50 mM and 1 mM respectively was prepared from 500 mM HEPES and 10 mM EDTA in water. Rat liver lysate was removed from −80° C. storage, thawed and centrifuged at 4000 g for 5 min. A volume of the supernatant was transferred to the Eppendorf tube yielding a final concentration in the assay of 3 mg/mL rat liver lysate. The tube was gently inverted to mix the components. The reactions are then place in a 37° C. incubator for 20 min allowing the reaction mixture to reach 37° C. before the reaction was initiated.
To initiate the hydrolysis reaction, the samples were removed from the incubator and the compounds of the invention were added, as a DMSO solution, prepared in a manner to allow for <1% final DMSO concentration and 5 μM final compound concentration. […]
This rat liver lysate hydrolysis assay was used to assess the hydrolysis of bis-fatty acid linked bioactives into individual components. As an illustrative example, the bis-fatty acid cystamine linked bioactive VI-7 was assessed in this rat liver lysate assay. […] The amount of cysteamine that was formed could be quantitated by LC-MS/MS by carrying out an initial derivatization with Ellman's reagent. […] 50 μl of the tissue lysate reaction mixture was transferred to a 1.5 mL eppendorf tube and derivatization of cysteamine was performed with 50 μl 10 mM Ellman's reagent (5,5′ dithio-bis(2-nitrobenzoic acid). Samples were incubated at room temperature for 10 minutes, vortex for 1 minute followed by protein precipitation by addition of 300 μl of acetonitrile containing IS and 0.2% butylated hydroxyanisole (BHA). Supernatant was transferred to a clean LC vial and 10 μl of the sample was injected on LC-MS/MS for the measurement of cysteamine. The concentration of cysteamine was measured by LC-MS/MS. […]

[4] = molecular target: T1, FAAH-1 (Homo sapiens, UniProt O00519); experiment: Hydrolysis in homogenate of COS-7 cells overexpressed with FAAH-1; format: biochemical
T1 construct: expressed in transfected cells; host or cells: COS-7
T1 sequence (O00519 1-579): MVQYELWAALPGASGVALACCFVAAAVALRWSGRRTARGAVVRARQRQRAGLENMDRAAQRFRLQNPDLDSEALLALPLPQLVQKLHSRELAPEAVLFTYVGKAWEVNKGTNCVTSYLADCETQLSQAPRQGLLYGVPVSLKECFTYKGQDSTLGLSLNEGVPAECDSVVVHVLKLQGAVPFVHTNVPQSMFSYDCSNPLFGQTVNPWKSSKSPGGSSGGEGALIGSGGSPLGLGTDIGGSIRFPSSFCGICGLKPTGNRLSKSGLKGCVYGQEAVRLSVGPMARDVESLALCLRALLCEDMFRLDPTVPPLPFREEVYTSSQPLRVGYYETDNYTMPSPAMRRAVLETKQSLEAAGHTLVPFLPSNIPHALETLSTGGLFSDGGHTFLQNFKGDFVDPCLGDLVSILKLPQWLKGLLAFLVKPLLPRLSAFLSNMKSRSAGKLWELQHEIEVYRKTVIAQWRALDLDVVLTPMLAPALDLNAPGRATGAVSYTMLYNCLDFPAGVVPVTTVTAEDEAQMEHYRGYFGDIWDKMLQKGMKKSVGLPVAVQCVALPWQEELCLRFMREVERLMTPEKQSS
Method: (§1) Hydrolysis experiments using COS-7 cells overexpressed with either FAAH-1 or FAAH-2. […] The next day, cells were transfected, in duplicate, with 10 μg Vector control, flag-FAAH-1 or flag-FAAH-2 plasmids using Lipofectamine 2000 (Invitrogen) according to the manufacturer's protocol. 24 hours post transfection, cells were washed 1× in cold PBS, aspirated dry, and then scraped off the plate in the presence of 0.6 mL reaction buffer (50 mM HEPES, pH 9.0; 1 mM EDTA). Cells were then homogenated using a VWR VDI 12 Adaptable Homogenizer, on ice for 1 minute, and the sample was then clarified by centrifugation at 6,000 g for 5 minutes. The supernatant of this homogenated fraction was then used for FAAH hydrolysis assays. […] Gel densitometry was performed and the % FAAH extracted in each successive lysis conditions was determined according to standard procedures.
(§2) The following hydrolysis experiments were performed using COS-7 cells containing overexpressed FAAH-1 or FAAH-2. […] Briefly, the hydrolysis experiments were carried out in Eppendorf tubes using procedures similar to the one described above. […] At time=0, 1, and 3 h, the protein was precipitated with acetonitrile.

[5] = molecular target: T2, FAAH-2 (Homo sapiens, UniProt Q6GMR7); experiment: Hydrolysis in homogenate of COS-7 cells overexpressed with FAAH-2; format: biochemical; conditions: FIG. 9B; 5 μM inhibitor
T2 construct: expressed in transfected cells; host or cells: COS-7
T2 sequence (Q6GMR7 1-532): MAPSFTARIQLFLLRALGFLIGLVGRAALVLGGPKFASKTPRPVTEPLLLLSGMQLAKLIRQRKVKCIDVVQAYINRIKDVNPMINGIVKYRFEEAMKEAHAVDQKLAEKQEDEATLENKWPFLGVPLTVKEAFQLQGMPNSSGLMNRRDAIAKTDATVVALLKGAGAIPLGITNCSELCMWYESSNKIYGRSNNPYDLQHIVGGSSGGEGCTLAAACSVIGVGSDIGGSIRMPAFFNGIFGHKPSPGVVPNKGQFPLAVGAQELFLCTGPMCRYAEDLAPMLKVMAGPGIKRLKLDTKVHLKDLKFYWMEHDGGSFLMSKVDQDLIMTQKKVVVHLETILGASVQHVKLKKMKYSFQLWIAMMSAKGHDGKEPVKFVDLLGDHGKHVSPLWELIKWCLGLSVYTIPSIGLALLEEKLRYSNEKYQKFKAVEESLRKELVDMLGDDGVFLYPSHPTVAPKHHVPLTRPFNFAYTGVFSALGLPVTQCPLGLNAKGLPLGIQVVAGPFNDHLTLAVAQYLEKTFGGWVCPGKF
Method: as §1, §2

Compound: CC/C=C\C/C=C\C/C=C\C/C=C\C/C=C\C/C=C\CCC(=O)NCCNC(=O)/C=C/C(=O)OC [IV-1, (E)-methyl 4-(2-(4Z,7Z,10Z,13Z,16Z,19Z)-docosa-4,7,10,13,16,19-hexaenamidoethylamino)-4-oxobut-2-enoate]
- IC50 [1]: 16 µM

Compound: CC/C=C\C/C=C\C/C=C\C/C=C\C/C=C\C/C=C\CCC(=O)NCCNC(=O)c1cccnc1 [III-2, N-(2-(4Z,7Z,10Z,13Z,16Z,19Z)-docosa-4,7,10,13,16,19-hexaenamidoethyl)nicotinamide]
- IC50 [2]: 50 µM

Compound: CC/C=C\C/C=C\C/C=C\C/C=C\C/C=C\C/C=C\CCC(=O)NCCNC(=O)CCC/C=C\C/C=C\C/C=C\C/C=C\C/C=C\CC [VI-5, (4Z,7Z,10Z,13Z,16Z,19Z)-docosa-4,7,10,13,16,19-hexaenoic acid [2-((5Z,8Z,11Z,14Z,17Z)-icosa-5,8,11,14,17-pentaenoylamino)-ethyl]-amide]
- IC50 [1]: 63 µM

Compound: CC/C=C\C/C=C\C/C=C\C/C=C\C/C=C\C/C=C\CCC(=O)N1CCN(C(=O)CCC/C=C\C/C=C\C/C=C\C/C=C\C/C=C\CC)CC1 [VI-1, (4Z,7Z,10Z,13Z,16Z,19Z)-1-[4-((5Z,8Z,11Z,14Z,17Z)-icosa-5,8,11,14,17-pentaenoyl)-piperazin-1-yl]-docosa-4,7,10,13,16,19-hexaen-1-one]
- IC50 [2]: 10 µM

Compound: CC/C=C\C/C=C\C/C=C\C/C=C\C/C=C\C/C=C\CCC(=O)NCCSSCCNC(=O)CCC/C=C\C/C=C\C/C=C\C/C=C\C/C=C\CC [VI-7, (4Z,7Z,10Z,13Z,16Z,19Z)-docosa-4,7,10,13,16,19-hexaenoic acid {2-[2-((5Z,8Z,11Z,14Z,17Z)-icosa-5,8,11,14,17-pentaenoylamino)-ethyldisulfanyl]-ethyl}-amide]
- hydrolysis in rat liver lysate ([3]; FIG. 7A, 5 μM compound, 3 mg/mL rat liver lysate, 37° C.): time-dependent hydrolysis
- formation of cysteamine in rat liver lysate ([3]; FIG. 7B, absence of the FAAH inhibitor PF-3845): time dependent formation of cysteamine

Compound: CC/C=C\C/C=C\C/C=C\C/C=C\C/C=C\C/C=C\CCC(=O)NCCNC(=O)CC/C=C\C/C=C\C/C=C\C/C=C\C/C=C\C/C=C\CC [VI-6, (4Z,7Z,10Z,13Z,16Z,19Z)-docosa-4,7,10,13,16,19-hexaenoic acid [2-((4Z,7Z,10Z,13Z,16Z,19Z)-docosa-4,7,10,13,16,19-hexaenoylamino)-ethyl]-amide]
- IC50 [1]: 68 µM

Compound: CC/C=C\C/C=C\C/C=C\C/C=C\C/C=C\CCCC(=O)NCCNC(=O)c1cccnc1 [III-1, N-(2-(5Z,8Z,11Z,14Z,17Z)-icosa-5,8,11,14,17-pentaenamidoethyl)nicotinamide]
- IC50 [2]: 50 µM

Compound: CC/C=C\C/C=C\C/C=C\C/C=C\C/C=C\C/C=C\CCC(=O)NCCNC(=O)c1ccccc1O [Compound I-1, N-(2-(4Z,7Z,10Z,13Z,16Z,19Z)-docosa-4,7,10,13,16,19-hexaenamidoethyl)-2-hydroxybenzamide]
- IC50 [1]: 30 to 35 µM
- hydrolysis (disappearance of compound) in COS-7 cells overexpressed with FAAH-1 ([4]; FIG. 9A, 5 μM, absence of any inhibitor, 0-3 h): significant hydrolysis
- appearance of DHA from compound, FAAH-1 ([4]; FIG. 9C, 5 μM, no inhibitor): time dependent formation of DHA

Compound: O=C(Nc1cccnc1)N1CCC(Cc2cccc(Oc3ccc(C(F)(F)F)cn3)c2)CC1 [PF-3845]
- effect of FAAH inhibitor on formation of cysteamine from compound VI-7 in rat liver lysate ([3]; FIG. 7B, presence of inhibitor): essentially no increase in cysteamine
- effect of inhibitor on rate of hydrolysis of compound I-1, FAAH-1 ([4]; FIG. 9A, 5 μM inhibitor): significantly reduced
- effect of inhibitor on rate of formation of DHA from compound I-1, FAAH-1 ([4]; FIG. 9C, 5 μM inhibitor): significantly inhibited
- effect of inhibitor on hydrolysis of compound I-1, FAAH-2 [5]: not as effective as URB597
